Key:
[1] = target: Neuronal acetylcholine receptor; alpha4/beta2 (Rattus norvegicus, UniProt P09483+P12390); assay: Displacement of [3H]cytisine from alpha4beta2 nicotinic acetylcholine receptor in rat brain minus cerebellum membrane; type: tissue-based
[2] = target: Neuronal acetylcholine receptor subunit alpha-7 (Rattus norvegicus, UniProt Q05941); assay: Displacement of [3H]A585539 from alpha7 nicotinic acetylcholine receptor in rat brain minus cerebellum membrane; type: tissue-based
Rattus norvegicus = species on record: Rattus norvegicus; assay: Selectivity ratio of Ki for alpha7 nicotinic acetylcholine receptor to Ki for alpha4beta2 nicotinic acetylcholine receptor in rat brain minus cerebellum membrane; type: tissue-based
[3] = target: T1, Neuronal acetylcholine receptor; alpha4/beta2 (Homo sapiens, UniProt P17787+P43681); assay: Agonist activity at human recombinant alpha4beta2 nicotinic acetylcholine receptor expressed in HEK293 cells assessed as changes in intracellular calcium level by FLIPR; type: functional, cell-based
T1 sequence (P17787 whole entry): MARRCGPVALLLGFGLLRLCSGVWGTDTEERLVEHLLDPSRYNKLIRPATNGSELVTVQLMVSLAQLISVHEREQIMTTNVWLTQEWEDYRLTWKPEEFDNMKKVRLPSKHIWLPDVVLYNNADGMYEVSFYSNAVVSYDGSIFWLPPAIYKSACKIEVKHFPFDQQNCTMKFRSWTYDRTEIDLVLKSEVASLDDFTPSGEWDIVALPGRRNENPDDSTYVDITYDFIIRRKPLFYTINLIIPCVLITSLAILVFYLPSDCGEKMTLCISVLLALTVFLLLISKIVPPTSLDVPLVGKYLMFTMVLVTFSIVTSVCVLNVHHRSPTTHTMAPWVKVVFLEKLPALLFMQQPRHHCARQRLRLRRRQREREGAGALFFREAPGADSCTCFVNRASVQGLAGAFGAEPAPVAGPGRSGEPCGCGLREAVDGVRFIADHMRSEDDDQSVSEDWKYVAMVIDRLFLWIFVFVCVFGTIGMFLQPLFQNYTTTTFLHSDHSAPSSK
T1 sequence (P43681 whole entry): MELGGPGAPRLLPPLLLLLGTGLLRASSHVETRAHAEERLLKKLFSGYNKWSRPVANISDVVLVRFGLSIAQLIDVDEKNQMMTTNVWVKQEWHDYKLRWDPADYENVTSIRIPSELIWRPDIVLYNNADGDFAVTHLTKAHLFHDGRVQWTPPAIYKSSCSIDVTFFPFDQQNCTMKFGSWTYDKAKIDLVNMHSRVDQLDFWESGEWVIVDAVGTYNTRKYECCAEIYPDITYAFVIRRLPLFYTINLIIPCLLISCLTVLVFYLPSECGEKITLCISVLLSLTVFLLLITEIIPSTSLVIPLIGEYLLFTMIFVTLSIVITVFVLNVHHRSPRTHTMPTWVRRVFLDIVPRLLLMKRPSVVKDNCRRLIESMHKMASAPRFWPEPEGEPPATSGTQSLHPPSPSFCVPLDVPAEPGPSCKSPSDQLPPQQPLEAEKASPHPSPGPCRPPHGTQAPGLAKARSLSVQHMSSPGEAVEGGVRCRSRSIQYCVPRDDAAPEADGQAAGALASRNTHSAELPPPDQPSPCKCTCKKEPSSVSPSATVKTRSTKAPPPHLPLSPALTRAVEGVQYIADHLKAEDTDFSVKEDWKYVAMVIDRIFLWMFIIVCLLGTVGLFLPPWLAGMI

[4] = target: T1, Neuronal acetylcholine receptor; alpha4/beta2; assay: Agonist activity at human recombinant alpha4beta2 nicotinic acetylcholine receptor expressed in HEK293 cells assessed as changes in intracellular calcium level at 100 uM by FLIPR relative to nicotine; type: functional, cell-based
[5] = target: T2, Neuronal acetylcholine receptor subunit alpha-7 (Homo sapiens, UniProt P36544); assay: Agonist activity at human recombinant alpha7 nicotinic acetylcholine receptor expressed in xenopus laevis oocytes by parallel oocyte electrophysiological assay; type: functional, cell-based
T2 sequence (P36544 whole entry): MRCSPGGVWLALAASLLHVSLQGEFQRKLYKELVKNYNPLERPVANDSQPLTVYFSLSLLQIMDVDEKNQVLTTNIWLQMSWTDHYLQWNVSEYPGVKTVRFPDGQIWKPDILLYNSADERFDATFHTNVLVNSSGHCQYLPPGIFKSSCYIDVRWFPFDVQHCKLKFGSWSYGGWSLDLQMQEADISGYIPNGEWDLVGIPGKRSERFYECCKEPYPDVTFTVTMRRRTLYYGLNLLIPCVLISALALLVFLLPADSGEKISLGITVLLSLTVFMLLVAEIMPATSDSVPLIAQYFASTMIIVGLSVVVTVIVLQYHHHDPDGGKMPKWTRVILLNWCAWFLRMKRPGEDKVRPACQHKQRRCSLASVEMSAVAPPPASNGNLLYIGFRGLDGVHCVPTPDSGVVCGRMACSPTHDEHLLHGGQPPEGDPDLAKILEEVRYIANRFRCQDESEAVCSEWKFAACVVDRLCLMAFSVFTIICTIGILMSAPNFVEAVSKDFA

[6] = target: T2, Neuronal acetylcholine receptor subunit alpha-7; assay: Agonist activity at human recombinant alpha7 nicotinic acetylcholine receptor expressed in xenopus laevis oocytes at 100 uM by parallel oocyte electrophysiological assay relative to acetylcholine; type: functional, cell-based

Chain of Neuronal acetylcholine receptor; alpha4/beta2 (Rattus norvegicus, UniProt P09483+P12390) (P09483 whole entry): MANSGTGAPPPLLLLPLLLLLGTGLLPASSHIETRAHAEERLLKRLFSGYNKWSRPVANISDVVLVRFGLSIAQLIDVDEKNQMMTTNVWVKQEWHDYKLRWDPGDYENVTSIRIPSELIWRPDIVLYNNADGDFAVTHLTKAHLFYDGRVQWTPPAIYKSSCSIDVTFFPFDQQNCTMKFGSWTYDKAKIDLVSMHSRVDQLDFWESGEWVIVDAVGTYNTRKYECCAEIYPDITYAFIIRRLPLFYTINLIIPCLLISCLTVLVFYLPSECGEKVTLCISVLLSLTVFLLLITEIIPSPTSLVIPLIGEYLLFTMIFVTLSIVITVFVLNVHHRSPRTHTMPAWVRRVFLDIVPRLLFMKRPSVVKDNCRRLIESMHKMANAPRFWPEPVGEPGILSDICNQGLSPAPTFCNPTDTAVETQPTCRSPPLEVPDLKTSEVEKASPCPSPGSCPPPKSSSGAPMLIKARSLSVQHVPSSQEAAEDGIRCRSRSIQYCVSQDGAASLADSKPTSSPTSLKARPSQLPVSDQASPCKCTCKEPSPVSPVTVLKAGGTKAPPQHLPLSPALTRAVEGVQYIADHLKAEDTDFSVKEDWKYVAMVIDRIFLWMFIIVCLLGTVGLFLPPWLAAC
Chain of Neuronal acetylcholine receptor; alpha4/beta2 (Rattus norvegicus, UniProt P09483+P12390) (P12390 whole entry): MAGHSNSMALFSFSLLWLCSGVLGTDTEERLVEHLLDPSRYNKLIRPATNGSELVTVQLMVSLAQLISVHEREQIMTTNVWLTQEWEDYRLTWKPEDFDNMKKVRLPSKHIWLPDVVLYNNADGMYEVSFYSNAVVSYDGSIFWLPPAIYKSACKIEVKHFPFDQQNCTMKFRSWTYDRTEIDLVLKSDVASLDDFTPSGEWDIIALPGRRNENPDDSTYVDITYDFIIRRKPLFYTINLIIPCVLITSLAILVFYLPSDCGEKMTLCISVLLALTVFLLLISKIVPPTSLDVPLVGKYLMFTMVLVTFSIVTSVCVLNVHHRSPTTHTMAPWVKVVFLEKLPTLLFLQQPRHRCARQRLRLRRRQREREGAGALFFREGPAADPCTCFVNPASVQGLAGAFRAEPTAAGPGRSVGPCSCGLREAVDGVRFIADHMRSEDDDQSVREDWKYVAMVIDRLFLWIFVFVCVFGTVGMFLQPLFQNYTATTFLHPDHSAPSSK
Chain of Neuronal acetylcholine receptor subunit alpha-7 (Rattus norvegicus, UniProt Q05941) (Q05941 whole entry): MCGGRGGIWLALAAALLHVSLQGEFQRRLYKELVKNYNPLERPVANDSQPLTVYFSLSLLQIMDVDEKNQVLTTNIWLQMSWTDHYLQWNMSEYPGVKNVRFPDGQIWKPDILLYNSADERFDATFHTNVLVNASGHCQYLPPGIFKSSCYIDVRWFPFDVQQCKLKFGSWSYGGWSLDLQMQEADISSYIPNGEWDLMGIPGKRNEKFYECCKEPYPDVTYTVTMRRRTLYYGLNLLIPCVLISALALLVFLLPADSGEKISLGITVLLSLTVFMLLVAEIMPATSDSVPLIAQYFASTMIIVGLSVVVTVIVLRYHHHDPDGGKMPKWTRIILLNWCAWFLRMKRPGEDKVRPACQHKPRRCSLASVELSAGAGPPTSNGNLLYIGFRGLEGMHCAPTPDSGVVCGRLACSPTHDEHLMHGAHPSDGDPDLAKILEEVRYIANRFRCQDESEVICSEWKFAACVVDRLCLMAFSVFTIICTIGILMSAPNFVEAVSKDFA

Row | Compound | Ki [1] [nM] | Ki [2] [nM] | Ratio Ki (Rattus norvegicus) | EC50 [3] [nM] | Activity [4] [%] | EC50 [5] [nM] | Activity [6] [%]
1 | CN1C[C@@H]2CN(c3cncc(-c4ccccc4)c3)C[C@@H]2C1 | 51 | > 10000 | > 190 |  |  |  | 
2 | CN1C[C@@H]2CN(c3ccc(-c4ccccc4)cn3)C[C@@H]2C1 | > 100000 | 17 | > 6000 |  |  |  | 
3 | c1ccc(-c2ccc(N3C[C@H]4CNC[C@H]4C3)nn2)cc1 | 5320 | 17.5 | 300 | > 100000 | < 10 | 1150 | 29
4 | c1cncc(N2C[C@H]3CNC[C@H]3C2)c1 | 0.12 | 51 | 420 | 40 | 146 | 4470 | 129
5 | CN1C[C@@H]2CN(c3ccc(-c4ccccc4)nc3)C[C@@H]2C1 | 28000 | 9.6 | 0.0003 |  |  |  | 
6 | CCN1C[C@@H]2CN(c3ccc(-c4ccccc4)nn3)C[C@@H]2C1 | > 100000 | 330 | > 300 |  |  |  | 
7 | CN1C[C@@H]2CN(c3ccc(Cl)nc3)C[C@@H]2C1 | 38 | > 10000 | > 260 |  |  |  | 
8 | CCCOc1cncc(N2C[C@H]3CNC[C@H]3C2)c1 | 0.041 | > 10000 | > 240000 |  |  |  | 
9 | C[N+]1(C)C[C@H]2CN(c3ccc(Cl)nc3)C[C@H]2C1 | 210 | 340 | 1.6 |  |  |  | 
10 | c1ccc(-c2cncc(N3C[C@H]4CNC[C@H]4C3)c2)cc1 | 0.16 | 4560 | 28000 | > 100000 | < 10 | > 100000 | < 10
11 | c1ccc(-c2ccc(N3C[C@H]4CNC[C@H]4C3)cn2)cc1 | 96 | 8.4 | 0.09 |  |  |  | 
12 | COc1ccc(-c2ccc(N3C[C@H]4CN(C)C[C@H]4C3)nn2)cc1 | > 100000 | 22 | > 4500 |  |  |  | 
13 | c1ncc(N2C[C@H]3CNC[C@H]3C2)cc1N1CCOCC1 | 47 | > 10000 | > 210 |  |  |  | 
14 | COc1cncc(N2C[C@H]3CNC[C@H]3C2)c1 | 0.081 | 240 | 2900 |  |  |  | 
15 | CN1C[C@@H]2CN(c3ccc(-c4cccc(O)c4)nn3)C[C@@H]2C1 | 21000 | 7.9 | 2660 |  |  |  | 
16 | CN1C[C@@H]2CN(c3cccnc3)C[C@@H]2C1 | 26 | 1590 | 61 |  |  |  | 
17 | Cc1cc(C)cc(-c2ccc(N3C[C@H]4CN(C)C[C@H]4C3)nn2)c1 | > 100000 | > 10000 |  |  |  |  | 
18 | Cc1ccc(-c2ccc(N3C[C@H]4CN(C)C[C@H]4C3)nn2)cc1 | > 100000 | 11.6 | > 8600 |  |  |  | 
19 | c1cc(N2C[C@H]3CNC[C@H]3C2)ccn1 | > 10000 | > 10000 |  |  |  |  | 
20 | c1ccc(-c2ccc(N3C[C@H]4CNC[C@H]4C3)nc2)cc1 | > 100000 | 30 | > 3300 |  |  |  | 

Row | Compound | Ki [1] [nM] | Ki [2] [nM] | Ratio Ki (Rattus norvegicus) | EC50 [3] [nM] | Activity [4] [%] | EC50 [5] [nM] | Activity [6] [%]
21 | C[N+]1(C)C[C@H]2CN(c3ccc(-c4ccccc4)nn3)C[C@H]2C1 | > 10000 | 5.98 | > 1600 |  |  |  | 
22 | Cc1ccccc1-c1ccc(N2C[C@H]3CN(C)C[C@H]3C2)nn1 | > 10000 | 690 | > 14 |  |  |  | 
23 | CN1C[C@@H]2CN(c3ccc(-c4cccc([N+](=O)[O-])c4)nc3)C[C@@H]2C1 | 2600 | 30 | 87 |  |  |  | 
24 | Cc1cccc(-c2ccc(N3C[C@H]4CN(C)C[C@H]4C3)nn2)c1 | > 100000 | 4.42 | > 22000 |  |  |  | 
25 | Oc1cncc(N2C[C@H]3CNC[C@H]3C2)c1 | 0.75 | > 10000 | > 13000 |  |  |  | 
26 | Brc1ccc(N2C[C@H]3CNC[C@H]3C2)cn1 | 0.28 | 290 | 1000 |  |  |  | 
27 | CCOc1cncc(N2C[C@H]3CNC[C@H]3C2)c1 | 0.035 | 1440 | 41000 | 370 | 118 | > 100000 | 37
28 | Clc1ccc(N2C[C@H]3CNC[C@H]3C2)cn1 | 0.2 | 180 | 900 |  |  |  | 
29 | c1ccc(-c2ccc(N3C[C@H]4CNC[C@H]4C3)cc2)cc1 | > 10000 | 28 | > 350 |  |  |  | 
30 | CC(C)Oc1cncc(N2C[C@H]3CNC[C@H]3C2)c1 | 0.051 | > 10000 | > 200000 |  |  |  | 
31 | CN1C[C@@H]2CN(c3ccc(-c4ccc5[nH]ccc5c4)nn3)C[C@@H]2C1 | > 100000 | 0.24 | > 400000 | > 100000 | < 10 | 320 | 87
32 | CN1C[C@@H]2CN(c3ccc(-c4cccc(-c5ccccc5)c4)nc3)C[C@@H]2C1 | 9800 | 44 | 220 |  |  |  | 
33 | c1ccc(N2C[C@H]3CNC[C@H]3C2)nc1 | 260 | > 10000 | > 38 |  |  |  | 
34 | Brc1cncc(N2C[C@H]3CNC[C@H]3C2)c1 | 0.06 | 66 | 1100 |  |  |  | 
35 | CN1C[C@@H]2CN(c3ccc(-c4ccccc4)nn3)C[C@@H]2C1 | > 100000 | 10.8 | > 9200 | > 100000 | < 10 | 4260 | 52
36 | CN1C[C@@H]2CN(c3ccc(-c4ccccc4)cc3)C[C@@H]2C1 | > 100000 | 12 | > 8300 |  |  |  | 
37 | CN1C[C@@H]2CN(c3ccc(-c4ccc(O)cc4)nn3)C[C@@H]2C1 | > 10000 | 5.3 | > 1800 |  |  |  | 
38 | COc1cccc(-c2ccc(N3C[C@H]4CN(C)C[C@H]4C3)cn2)c1 | > 100000 | 5 | > 2000 |  |  |  | 
39 | Cc1cccc(-c2ccc(N3C[C@H]4CN(C)C[C@H]4C3)cn2)c1 | 750 | 6.7 | 112 |  |  |  | 
40 | c1ccc(COc2cncc(N3C[C@H]4CNC[C@H]4C3)c2)cc1 | 0.058 | > 10000 | > 170000 |  |  |  | 

— ChEMBL document CHEMBL1137790, “Octahydropyrrolo[3,4-c]pyrrole: a diamine scaffold for construction of either alpha4beta2 or alpha7-selective nicotinic acetylcholine receptor (nAChR) ligands. Substitutions that switch subtype selectivity” (J Med Chem, 2009)
